The record followed here is ChEMBL document CHEMBL1124940, “N-[(arylmethoxy)phenyl] carboxylic acids, hydroxamic acids, tetrazoles, and sulfonyl carboxamides. Potent orally active leukotriene D4 antagonists of novel structure” (J Med Chem, 1990).

Molecules are shown by their SMILES.

In series [1] the test system is Cavia porcellus. The experiment in a line: Inhibition of LTD4-induced broncho constriction in Guinea pig after intragastrical administration of a dose of 25 mg/kg. The series is classed as functional. As to conditions: po, route intragastric.
In series [2] the test system is Cavia porcellus. In words: Inhibition of LTD4-induced broncho constriction in Guinea pig after intragastrical administration of a dose of 3 mg/kg. As to conditions: po, route intragastric. The series is classed as functional.
Series [3] relates to Cavia porcellus. The experiment in a line: Tested for the inhibition of LTD4-induced broncho constriction in Guinea pig, injected intraduodenally at a dose of 25 mg/kg. In kind it is functional. As to conditions: route intraduodenal.
Series [4] concerns Cavia porcellus. In words: Inhibition of LTD4-induced broncho constriction in Guinea pig after intraduodenal administration of a dose of 25 mg/kg. The series is classed as functional.
The subject of series [5] is Cavia porcellus. The experiment in a line: Tested for the inhibition of ovalbumin- induced bronchoconstriction in Guinea pig, injected intragastrically. Compound dose is 10 mg/kg. In kind it is functional. As to conditions: po, route intragastric.
Series [6] relates to Cavia porcellus. The experiment in a line: Tested for the inhibition of ovalbumin- induced bronchoconstriction in Guinea pig, injected intragastrically. Compound dose is 25 mg/kg. In kind it is functional. As to conditions: po, route intragastric.
Series [7] relates to Cavia porcellus. In words: Tested for the inhibition of LTD4-induced bronchoconstriction in Guinea pig, injected intraduodenally, dose of 3 mg/kg. The series is classed as functional. The settings on record: route intraduodenal.
Series [8] concerns Cavia porcellus. The experiment in a line: Tested for the inhibition of LTD4-induced broncho constriction in Guinea pig, injected intraduodenally at a dose of 5 mg/kg. In kind it is functional. As to conditions: route intraduodenal.
In series [9] the test system is Cavia porcellus. The experiment in a line: -log dissociation constant was determined In vitro in isolated guinea pig trachea after intraduodenal administration (before 10 min). In kind it is ADME, organism-based. As to conditions: in vivo, other.
Series [10] has as its system Cavia porcellus. The experiment in a line: In vitro LTD4-induced bronchoconstriction. i n isolated guinea pig trachea by injecting intraduodenally. In kind it is functional. The settings on record: intraduodenal.
Series [11] concerns Cavia porcellus. The experiment in a line: In vitro inhibition of ovalbumin-induced bronchoconstriction in isolated guinea pig trachea was determined after intraduodenal aministration. The series is classed as functional.
In series [12] the test system is Cavia porcellus. The experiment in a line: Inhibition of LTD4-induced broncho constriction in Guinea pig, compound injected intraduodenally at a dose of 25 mg/kg. The settings on record: route intraduodenal. In kind it is functional.
Series [13] concerns Cavia porcellus. The experiment in a line: Inhibition of ovalbumin-induced broncho constriction in Guinea pig after intragastrical administration of a dose of 25 mg/kg. The series is classed as functional. The settings on record: po, route intragastric.
Series [14] has as its system Cavia porcellus. In words: Tested for the inhibition of LTD4-induced bronchoconstriction in Guinea pig, injected intragastrically, dose of 25 mg/kg. In kind it is functional. As to conditions: po, route intragastric.

The inhibition in vivo is the drop in the measured response relative to a control, in per cent. A word on the pKb: it is the Kb on a negative log10 scale, so that one unit is a factor of ten. Low values mean a high Kb, high ones a low Kb. In general, ED50 refers to the midpoint of the dose-response relation.

As to `CONC(=O)Cc1cccc(OCc2nc3ccccc3n2C)c1`, in series [1], the inhibition in vivo at 25 mg/kg was less than 58%.

`CONC(=O)CCc1cccc(OCc2ccc3ccccc3n2)c1`: the inhibition in vivo at 25 mg/kg in series [1] was 86%. Besides, the inhibition in vivo at 3 mg/kg in series [2] was 5%.

Consider `O=C(NO)c1cccc(OCc2ccc3ccccc3n2)c1`, for which the inhibition in vivo at 25 mg/kg in [3] was less than 33%.

As to `O=C(NOCc1ccccc1)c1cccc(OCc2ccc3ccccc3n2)c1`, the inhibition in vivo at 25 mg/kg in series [4] was less than 71%; in series [1] it was less than -14%.

As to `O=C(O)Cc1ccc(OCc2ccc3ccccc3n2)cc1`, in series [1], the inhibition in vivo at 25 mg/kg was less than -4%.

In the case of `c1ccc2nc(COc3ccc(Cc4nnn[nH]4)cc3)ccc2c1`, the inhibition in vivo at 25 mg/kg was 90% in [1], 76% in [6] and 88% in series [3]. Moreover, the inhibition in vivo at 3 mg/kg was 4% in series [2] and -15% in [7]. In addition, the inhibition in vivo at 10 mg/kg in series [5] was determined as 6%.

Regarding `c1ccc2nc(COc3ccc(-c4nn[nH]n4)cc3)ccc2c1`, the inhibition in vivo at 5 mg/kg in series [8] is less than 28%.

Regarding `COC(=O)CCC(=O)N(O)c1cccc(OCc2ccc3ccccc3n2)c1`, the negative logarithm of the Kb (pKb) in series [9] is 6.5. The ED50 was 3.3 mg/kg in series [10] and 27.4 mg/kg in series [11].

Turning to `COC(=O)Cc1cccc(OCc2nc3ccccc3s2)c1`, the inhibition in vivo at 25 mg/kg was less than 33% in [1] and less than 65% in series [12].

As to `c1cc(Cc2nnn[nH]2)cc(OCc2nc3ccccc3s2)c1`, the inhibition in vivo at 25 mg/kg in [3] was less than 95%.

Take `CON(C)C(=O)Cc1cccc(OCc2ccc3ccccc3n2)c1`: the inhibition in vivo at 25 mg/kg in [1] is 93%.

Take `Cc1ccc(S(=O)(=O)NC(=O)CCc2cccc(OCc3ccc4ccccc4n3)c2)cc1`: the results for the inhibition in vivo at 25 mg/kg in series [13], in series [3] and in series [14] were less than 26%, 97% and less than 66%, respectively.
